According to US20110136787A1, “DIPHENYL AZEPANE, DIAZEPANE AND OXAZEPANE DERIVATIVES AND USES THEREOF” (priority 2009, published 2011):

Legend:
[1] = biological target: T1, Human Norepinephrine Transporter (hNET) (Homo sapiens, UniProt P23975); assay: hNET scintillation proximity assay (SPA), competition with [3H]-Nisoxetine; assay type: binding; conditions: pKi, membranes of HEK-293 cells expressing recombinant hNET, read-out: NET (converted)
T1 construct: expressed in transfected cells; host or cells: HEK-293 (Clone: HEK-hNET #2), membrane preparation
T1 sequence (P23975 whole entry): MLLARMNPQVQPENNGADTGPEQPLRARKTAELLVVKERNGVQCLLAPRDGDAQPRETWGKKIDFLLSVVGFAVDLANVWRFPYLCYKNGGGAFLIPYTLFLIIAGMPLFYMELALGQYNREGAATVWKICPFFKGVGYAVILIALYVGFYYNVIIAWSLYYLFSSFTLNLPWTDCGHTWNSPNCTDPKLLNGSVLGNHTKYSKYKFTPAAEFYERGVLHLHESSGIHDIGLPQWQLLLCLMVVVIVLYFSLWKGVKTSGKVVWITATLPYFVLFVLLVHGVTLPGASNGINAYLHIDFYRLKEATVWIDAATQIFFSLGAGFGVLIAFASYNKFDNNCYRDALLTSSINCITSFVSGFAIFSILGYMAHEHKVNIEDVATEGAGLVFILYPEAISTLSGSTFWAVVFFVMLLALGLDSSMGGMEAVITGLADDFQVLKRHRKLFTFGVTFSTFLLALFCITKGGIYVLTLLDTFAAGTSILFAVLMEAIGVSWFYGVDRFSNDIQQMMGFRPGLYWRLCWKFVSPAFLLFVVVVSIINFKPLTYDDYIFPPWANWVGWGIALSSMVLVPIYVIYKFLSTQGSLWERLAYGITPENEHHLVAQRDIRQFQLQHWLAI
Procedure: Screening for compounds active at Human Norepinephrine Transporter (hNET) Using a Scintillation Proximity Assay (SPA)
This assay was used to determine the affinity of ligands for the hNET transporter by competition with [^3H]-Nisoxetine. As in the hSERT assay of the above example, receptor-containing membranes were pre-coupled to the SPA beads and the binding of the appropriate radioligand to the transporter was measured. The light emission was proportional to the amount of bound radioligand, with unbound radioligand producing no signal.
(§1) HEK-293 cells (Tatsumi et al., Eur. J. Pharmacol. 1997, 30, 249-258) stably expressing recombinant hNET (Clone: HEK-hNET #2) were maintained with media (DMEM hi glucose with 10% FBS, 300 ug/ml G418 and 2 mM L-Glutamine) and incubated at 37° C. with 5% CO2. Cells were released from culture flasks using PBS for 1-2 minutes. The cells were subsequently centrifuged at 1000 g′ s for 5 minutes and resuspended in PBS prior to being used in the membrane preparation.
(§2) Cell membranes were prepared using a membrane preparation buffer of 50 mM TRIS (pH 7.4). Cell membranes were prepared from a single cube (7.5×10^9 cells total). Cells were homogenized using a Polytron (setting medium for a 4 second burst). The homogenate was then centrifuged at 48,000×g for 15 minutes, the supernatant subsequently removed and discarded, and the pellet resuspended with fresh buffer. After a second centrifugation, the pellet was re-homogenized and brought to a final volume determined during the assay. Typically, membrane portions were aliquoted in 3-6 mg/ml (w:v). and stored at −80° C.
^3[H] Nisoxetine radioligand (Amersham Cat. # TRK942 or Perkin Elmer Cat. # NET1084, specific activity: 70-87 Ci/mmol, stock concentration: 1.22e-5 M, final concentration: 8.25e-9 M), and 50 mM Tris-HCl, 300 mM NaCl, (pH 7.4) buffers were used for Scintillation Proximity Assay IC50/Ki determination. Compounds of the invention were diluted from 10 mM to 0.1 nM FAC (10 point curves, whole log/half log dilutions) via a Beckman Biomek 2000 using a serial dilution protocol. The test compounds were then transferred (20 ul/well) and the radioligand was added at 50 ul/well. Membrane and beads were prepared to a ratio of […], with 0.7 mg PVT-WGA Amersham beads (Cat# RPQ0282V) added per well. […] of the membrane: bead mixture was added to the assay plate. The mixtures were allowed to stand at room temperature for one hour, and were then counted on a Packard TopCount LCS, a generic SPA counting protocol settings (Energy Range: Low, Efficiency Mode: Normal, Region A: 1.50-35.00, Region B: 1.50-256.00, Count Time (min.): 0.40, Background Subtract: none, Half-Life Correction: no, Quench Indicator: tSIS, Platemap blank subtraction: No, Cross talk reduction: Off).
(§3) The % inhibition was calculated for each compound tested [(Compound CPM at maximum concentration-Non-Specific CPM)/Total CPM*100]. The concentration producing 50% inhibition (IC50) was determined using an iterative non-linear curve fitting technique with Activity Base/Xlfit using the following equation:
(§4) where max=total binding, min=non specific binding, x=concentration (M) of the tested compound and n=Hill slope. The inhibition dissociation constant (Ki) of each compound was determined according to the method of Cheng-Prusoff and then converted into negative logarithm (pKi) of the Ki.

[2] = biological target: T2, Human Serotonin Transporter (hSERT) (Homo sapiens, UniProt P31645); assay: hSERT scintillation proximity assay (SPA), competition with [3H]-Citalopram; assay type: binding; conditions: pKi, membranes of HEK-293 cells expressing recombinant hSERT, read-out: SERT (converted)
T2 construct: expressed in transfected cells; host or cells: HEK-293, membrane preparation
T2 sequence (P31645 whole entry): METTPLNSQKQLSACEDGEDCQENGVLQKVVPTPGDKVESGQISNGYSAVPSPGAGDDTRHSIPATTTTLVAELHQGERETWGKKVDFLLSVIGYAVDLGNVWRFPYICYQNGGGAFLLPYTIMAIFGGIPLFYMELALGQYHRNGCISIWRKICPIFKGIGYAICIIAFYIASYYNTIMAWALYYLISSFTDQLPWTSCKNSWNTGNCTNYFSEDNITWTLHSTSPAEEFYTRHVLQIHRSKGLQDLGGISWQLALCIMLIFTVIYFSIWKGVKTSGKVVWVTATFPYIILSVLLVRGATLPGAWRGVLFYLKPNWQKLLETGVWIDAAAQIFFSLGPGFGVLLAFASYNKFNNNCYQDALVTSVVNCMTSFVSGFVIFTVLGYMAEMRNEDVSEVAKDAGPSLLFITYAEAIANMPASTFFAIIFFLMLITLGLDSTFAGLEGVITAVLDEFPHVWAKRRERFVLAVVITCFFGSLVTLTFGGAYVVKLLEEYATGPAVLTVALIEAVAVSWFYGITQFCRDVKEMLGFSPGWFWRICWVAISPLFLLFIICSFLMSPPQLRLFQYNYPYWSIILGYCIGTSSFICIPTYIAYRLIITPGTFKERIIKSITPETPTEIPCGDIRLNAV
From the text: Screening for Human Serotonin Transporter (hSERT) Antagonists Using a Scintillation Proximity Assay (SPA)
The screening assay of this example was used to determine the affinity of ligands at the hSERT transporter by competition with [^3H]-Citalopram.
Scintillation Proximity Assay (SPA) works by bringing radioligand within close proximity to the bead's scintillant to stimulate light emission. In this assay, the receptor-containing membranes were pre-coupled to the SPA beads and the binding of the appropriate radioligand to the transporter was measured. The light emission was proportional to the amount of bound radioligand. Unbound radioligand produced no signal as a result of distant proximity to scintillant (lack of energy transfer).
as §1, with “recombinant hSERT” for “recombinant hNET (Clone: HEK-hNET #2)”, “(DMEM high” for “(DMEM hi”, “Cells are” for “Cells were”
as §2, with “3” for “3-6”
For Scintillation Proximity Assay IC50/Ki determination, 50 mM Tris-HCl and 300 mM NaCl, (pH 7.4) buffers were utilized. Compounds of the invention were diluted from 10 mM to 0.1 nM FAC (10 point curves, whole log/half log dilutions) via a Beckman Biomek 2000 using a serial dilution protocol. The test compounds were then transferred (20 ul/well) and the [^3H]-Citalopram radioligand was added at 50 ul/well. Membrane and beads were prepared to a ratio of 10 ug:0.7 mg, with 0.7 mg PVT-WGA Amersham beads (Cat# RPQ0282V) added per well. 130 ul of the membrane: bead mixture was added to the assay plate. The mixtures were allowed to stand at room temperature for one hour, and were then counted on a Packard TopCount LCS, a generic Scintillation Proximity Assay counting protocol settings (Energy Range: Low, Efficiency Mode: Normal, Region A: 1.50-35.00, Region B: 1.50-256.00, Count Time (min.): 0.40, Background Subtract: none, Half-Life Correction: no, Quench Indicator: tSIS, Platemap blank subtraction: No, Cross talk reduction: Off).
as §3, with “[(Compound counts per minute (CPM)” for “[(Compound CPM”
as §4

c1ccc([C@H]2CCNCC[C@H]2c2ccccc2)cc1 [Compound 1, (4S,5R)-4,5-Diphenyl-azepane]
Ki [1]: 124 nM | Ki [2]: 9.33 nM

COc1ccccc1[C@H]1CCNCC[C@H]1c1ccccc1 [Compound 2, (4S,5R)-4-(2-Methoxy-phenyl)-5-phenyl-azepane]
Ki [1]: 30.9 nM | Ki [2]: 3.98 nM

c1ccc([C@H]2CCCNC[C@@H]2c2ccccc2)cc1 [Compound 3, (3S,4S)-3,4-Diphenyl-azepane]
Ki [1]: 77.2 nM | Ki [2]: 226 nM

c1ccc([C@H]2CCNCC[C@@H]2c2ccccc2)cc1 [Compound 4, (4S,5S)-4,5-Diphenyl-azepane]
Ki [1]: 741 nM | Ki [2]: 468 nM

c1ccc([C@H]2CNCCO[C@@H]2c2ccccc2)cc1 [Compound 5, (6S,7S)-6,7-Diphenyl-[1,4]oxazepane]
Ki [1]: 133 nM | Ki [2]: 684 nM

c1ccc([C@H]2CNCCO[C@H]2c2ccccc2)cc1 [Compound 6, (6S,7R)-6,7-Diphenyl-[1,4]oxazepane]
Ki [1]: 417 nM

COc1ccccc1[C@@H]1OCCNC[C@@H]1c1ccccc1 [Compound 7, (6S,7R)-7-(2-Methoxy-phenyl)-6-phenyl-[1,4]oxazepane]
Ki [1]: 106 nM | Ki [2]: 398 nM

COc1ccc([C@@H]2OCCNC[C@@H]2c2ccccc2)cc1 [Compound 8, (6S,7R)-7-(4-Methoxy-phenyl)-6-phenyl-[1,4]oxazepane]
Ki [2]: 34.7 nM

Fc1ccccc1[C@@H]1OCCNC[C@@H]1c1ccccc1 [Compound 9, (6S,7R)-7-(2-Fluoro-phenyl)-6-phenyl-[1,4]oxazepane]
Ki [1]: 275 nM | Ki [2]: 398 nM

Fc1ccc([C@@H]2OCCNC[C@@H]2c2ccccc2)cc1 [Compound 10, (6S,7R)-7-(4-Fluoro-phenyl)-6-phenyl-[1,4]oxazepane]
Ki [1]: 432 nM | Ki [2]: 234 nM

c1ccc(C2CNCCCN2c2ccccc2)cc1 (centres unmarked) [Compound 11, 1,2-Diphenyl-[1,4]diazepane]
Ki [1]: 282 nM | Ki [2]: 785 nM

c1ccc(C2CCNCCN2c2ccccc2)cc1 (centres unmarked) [Compound 12, 1,7-Diphenyl-[1,4]diazepane]
Ki [1]: 335 nM | Ki [2]: 407 nM

COc1ccc(C2CCNCCN2c2ccccc2)cc1 (centres unmarked) [Compound 13, 7-(4-Methoxy-phenyl)-1-phenyl-[1,4]diazepane]
Ki [1]: 676 nM | Ki [2]: 105 nM

COc1ccc(C2CNCCCN2c2ccccc2)cc1 (centres unmarked) [Compound 14, 2-(4-Methoxy-phenyl)-1-phenyl-[1,4]diazepane]
Ki [2]: 164 nM

Clc1ccc(C2CCNCCN2c2ccccc2)cc1 (centres unmarked) [Compound 15, 7-(4-Chloro-phenyl)-1-phenyl-[1,4]diazepane]
Ki [1]: 229 nM | Ki [2]: 407 nM

Clc1ccc(C2CNCCCN2c2ccccc2)cc1 (centres unmarked) [Compound 16, 2-(4-Chloro-phenyl)-1-phenyl-[1,4]diazepane]
Ki [1]: 263 nM | Ki [2]: 339 nM

COc1ccccc1C1CCNCCN1c1ccccc1 (centres unmarked) [Compound 17, 7-(2-Methoxy-phenyl)-1-phenyl-[1,4]diazepane]
Ki [1]: 422 nM | Ki [2]: 170 nM

COc1ccccc1C1CNCCCN1c1ccccc1 (centres unmarked) [Compound 18, 2-(2-Methoxy-phenyl)-1-phenyl-[1,4]diazepane]
Ki [1]: 2040 nM | Ki [2]: 1100 nM

Clc1ccccc1C1CCNCCN1c1ccccc1 (centres unmarked) [Compound 19, 7-(2-Chloro-phenyl)-1-phenyl-[1,4]diazepane]
Ki [1]: 219 nM | Ki [2]: 73.3 nM

Clc1ccccc1C1CNCCCN1c1ccccc1 (centres unmarked) [Compound 20, 2-(2-Chloro-phenyl)-1-phenyl-[1,4]diazepane]
Ki [2]: 394 nM

Fc1ccc(C2CCNCCN2c2ccccc2)cc1 (centres unmarked) [Compound 23, 7-(4-Fluoro-phenyl)-1-phenyl-[1,4]diazepane]
Ki [2]: 3630 nM

Fc1ccc(C2CNCCCN2c2ccccc2)cc1 (centres unmarked) [Compound 24, 2-(4-Fluoro-phenyl)-1-phenyl-[1,4]diazepane]
Ki [1]: 214 nM
